≈ marks a conversion by molar mass, not a printed value. Read-outs that look alike come from different tables or passages of the source. Where no end group is shown, it is not given here.
Key:
mouse red blood cells = experiment: Hemolytic activity; type: cell-based; conditions: at 12.5 M (so in the source); mouse RBCs, positive control
Procedure: The hemolytic activities of the peptides were determined as previously described. Fresh mouse red blood cells (RBCs) were washed and diluted to 8% with PBS. RBC suspension was added to 96-well plates (100 µL/well), mixed with an equal volume of serially diluted peptides, and incubated at 37 °C for 1 h with gentle shaking. The plate was centrifuged and the supernatant was transferred to a 96-well plate. The absorbance at 414 nm was measured with a Versa-Max ELISA reader (Molecular Devices). PBS and 0.1% Triton X-100 were used as negative and positive controls, respectively. The experiment was performed in triplicate. The hemolysis rate was calculated using the following formula[55]: % Hemolysis = [(Abs 414 nm in the peptide solution-Abs 414 nm in PBS)/(Abs 414 nm in 0.1% Triton X-100-Abs 414 nm in PBS)] × 100

[1] = system: Pseudomonas aeruginosa and MRPA strains; experiment: microbe, parasite or virus in culture; type: cell-based; conditions: broth micro-dilution, 37 °C, 18–24 h
Source text: Gram-negative (Pseudomonas aeruginosa ATCC 27853) bacterial strains were obtained from the ATCC (American Type Culture Collection; Manassas, VA, USA). Multidrug-resistant strains (Pseudomonas aeruginosa 138, 431, 434, 557, 559, 778, 1034, 1162, 3290, 3399, 3592, 3904, 4007, 4319, 4891, 5018, and 671973) were obtained from the Chonnam National University Hospital (Gwangju, South Korea).
(§1) We examined the activity of each peptide against both pseudomonas aeruginosa and multidrug-resistant strains. The minimal inhibitory concentrations (MICs) of peptides were determined using the broth micro-dilution assay as described previously. Briefly, bacterial strains were cultivated with shaking overnight at 37 °C. The next day, they were diluted to a density of 2 × 10^5 CFU/mL with growth medium. Peptides were serially diluted with 10 mM sodium phosphate buffer. 50 µL bacterial aliquots were mixed with an equal volume of peptide solution, and incubated at 37 °C for 18–24 h. Inhibition of bacterial growth was determined by measuring the absorbance at 600 nm using a Versa Max microplate reader (Molecular Devices, Sunnyvale, CA, USA). The test was performed in triplicate.

HaCaT cells = experiment: Cytotoxicity, MTT assay; type: cell-based, human; conditions: 24 h; for survival rate of HaCaT cells: 50 µM
Procedure: We used the MTT assay to evaluate the toxicity of the peptides toward human skin epithelial cells (HaCaT) as previously described. Briefly, HaCaT cells were seeded at a density of 2 × 10^4 cells per well in 96-well microtiter plates in Dulbecco’s modified Eagle’s medium (DMEM) containing 10% foetal bovine serum (FBS) at 37 °C under 5% CO2 atmosphere. The next day, peptides were added to each well at various final concentrations (higher concentration of 200 µM). After 24 h incubation, culture supernatants were removed. 0.5 mg/mL MTT was added to each well, and the plates were incubated for 4 h at 37 °C. The medium was replaced by dimethyl sulfoxide (DMSO) to dissolve the formazan crystals formed in the wells. The absorbance at 570 nm was measured using a Versa-Max microplate ELISA reader (Molecular Devices). The viability rate was calculated using the following formula: Cell viability (%) = (absorbance of treated sample)/(absorbance of control) × 100.

[2] = system: P. aeruginosa strains (biofilm formation); type: cell-based, Pseudomonas aeruginosa; conditions: 24 h, 37 °C, crystal violet OD595
Procedure: To evaluate the ability of bacterial strains to form biofilms either in the absence or presence of peptides, antibiotic-susceptible P. aeruginosa (ATCC 27853), and various strains of MDR P. aeruginosa were cultured in nutrient broth (NB). […]. The biofilms were fixed with 100% methanol for 15 min, stained with 0.1% crystal violet (CV) for 1 h, and rinsed three times with distilled water (dH2O). After the addition of 95% ethanol, biofilm mass was quantified by measuring OD at 595 nm using a Versa-Max microplate ELISA reader (Molecular Devices). Results were expressed as the percentage of biofilm formed with respect to the control. […] All experiments were performed at least in triplicate.

P. aeruginosa 27853 = type: cell-based, Pseudomonas aeruginosa
Procedure: as §1
The effects of various cations on the antibacterial activities of the parental and analogue peptides against P. aeruginosa 27853 were evaluated as previously described. Bacteria was treated with peptides at a final concentration 25 µM in the presence of physiological salts such as NaCl (50 mM, 100 mM, and 150 mM), CaCl2 (1.25 mM, 2.5 mM, and 5 mM), or MgCl2 (0.5 mM, 1 mM, and 2 mM). The MIC values were determined as described above.

[3] = P. aeruginosa 138 (multidrug-resistant), triplicate
[4] = P. aeruginosa 431 (multidrug-resistant), triplicate
[5] = P. aeruginosa 434 (multidrug-resistant), triplicate
[6] = P. aeruginosa 557 (multidrug-resistant), triplicate
[7] = P. aeruginosa 559 (multidrug-resistant), triplicate
[8] = P. aeruginosa 778 (multidrug-resistant), triplicate
[9] = P. aeruginosa 1034 (multidrug-resistant), triplicate
[10] = P. aeruginosa 1162 (multidrug-resistant), triplicate
[11] = P. aeruginosa 3290 (multidrug-resistant), triplicate
[12] = P. aeruginosa 3399 (multidrug-resistant), triplicate
[13] = P. aeruginosa 3543 (multidrug-resistant), triplicate
[14] = P. aeruginosa 3592 (multidrug-resistant), triplicate
[15] = P. aeruginosa 3904 (multidrug-resistant), triplicate
[16] = P. aeruginosa 4007 (multidrug-resistant), triplicate
[17] = P. aeruginosa 4319 (multidrug-resistant), triplicate
[18] = P. aeruginosa 4891 (multidrug-resistant), triplicate
[19] = P. aeruginosa 5018 (multidrug-resistant), triplicate
[20] = P. aeruginosa 671973 (multidrug-resistant), triplicate
[21] = P. aeruginosa ATCC 27853, 2 × 10^5 CFU/mL, A600, triplicate
[22] = P. aeruginosa 27853, 5 × 10^5 CFU/mL, 0.2% glucose

Row | Compound | MIC [1, 3] | MIC [1, 4] | MIC [1, 5] | MIC [1, 6] | MIC [1, 7] | MIC [1, 8] | MIC [1, 9] | MIC [1, 10] | MIC [1, 11] | MIC [1, 12] | MIC [1, 13] | MIC [1, 14] | MIC [1, 15] | MIC [1, 16] | MIC [1, 17] | MIC [1, 18] | MIC [1, 19] | MIC [1, 20] | MIC [1, 21] | MBIC ([2]; P. aeruginosa 434) | also measured
1 | CC[C@H](C)[C@H](NC(=O)CN)C(=O)NCC(=O)N[C@@H](C)C(=O)N[C@H](C(=O)N[C@@H](CC(C)C)C(=O)N[C@@H](CCCCN)C(=O)N[C@H](C(=O)N[C@@H](CC(C)C)C(=O)N[C@H](C(=O)N[C@H](C(=O)NCC(=O)N[C@@H](CC(C)C)C(=O)N1CCC[C@H]1C(=O)N[C@@H](C)C(=O)N[C@@H](CC(C)C)C(=O)N[C@H](C(=O)N[C@@H](CO)C(=O)N[C@@H](Cc1c[nH]c2ccccc12)C(=O)N[C@H](C(=O)N[C@@H](CCCCN)C(=O)N[C@@H](CCCNC(=N)N)C(=O)N[C@@H](CCCCN)C(=O)N[C@@H](CCCNC(=N)N)C(=O)N[C@@H](CCC(N)=O)C(=O)N[C@@H](CCC(N)=O)C(N)=O)[C@@H](C)CC)[C@@H](C)CC)[C@@H](C)O)[C@@H](C)O)C(C)C)C(C)C [Melittin, reference compound] | 3.13 µM (≈ 8.91 µg/mL) | 3.13 µM (≈ 8.91 µg/mL) | 3.13 µM (≈ 8.91 µg/mL) | 1.56 µM (≈ 4.44 µg/mL) | 3.13 µM (≈ 8.91 µg/mL) | 3.13 µM (≈ 8.91 µg/mL) | 1.56 µM (≈ 4.44 µg/mL) | 3.13 µM (≈ 8.91 µg/mL) | 3.13 µM (≈ 8.91 µg/mL) | 3.13 µM (≈ 8.91 µg/mL) | 3.13 µM (≈ 8.91 µg/mL) | 3.13 µM (≈ 8.91 µg/mL) | 3.13 µM (≈ 8.91 µg/mL) | 3.13 µM (≈ 8.91 µg/mL) | 3.13 µM (≈ 8.91 µg/mL) | 1.56 µM (≈ 4.44 µg/mL) | 3.13 µM (≈ 8.91 µg/mL) | 1.56 µM (≈ 4.44 µg/mL) | 3.13 µM (≈ 8.91 µg/mL) | – | hemolysis (mouse red blood cells): complete hemolysis; survival of HaCaT cells (HaCaT cells; 3.13 µM): no living cells were detected
2 | ILKKLLKGVKSI-NH2 [Hp1404-T1c] | 25 µM | 12.5 µM | 6.25 µM | 25 µM | 25 µM | 6.25 µM | 6.25 µM | 3.13 µM | >25 µM | 3.13 µM | >25 µM | 6.25 µM | 6.25 µM | 12.5 µM | 6.25 µM | 6.25 µM | 3.13 µM | 6.25 µM | 3.13 µM | 50 µM | MBIC ([2]; P. aeruginosa 559): 25 µM; MBIC ([2]; P. aeruginosa 778): 25 µM; MBIC ([2]; P. aeruginosa 1034): 25 µM; MBIC ([2]; P. aeruginosa 1162): 12.5 µM; MBIC ([2]; P. aeruginosa 3399): 25 µM; MBIC ([2]; P. aeruginosa 3543): >50 µM; MBIC ([2]; P. aeruginosa 4007): >50 µM; MBIC [2, 22]: 25 µM; MIC (P. aeruginosa 27853; CaCl2 1.25 mM): >25 µM; MIC (P. aeruginosa 27853; CaCl2 2.5 mM): >25 µM; MIC (P. aeruginosa 27853; CaCl2 5 mM): >25 µM; MIC (P. aeruginosa 27853; MgCl2 0.5 mM): 12.5 µM; MIC (P. aeruginosa 27853; MgCl2 1 mM): 12.5 µM; MIC (P. aeruginosa 27853; MgCl2 2 mM): >25 µM; MIC (P. aeruginosa 27853; NaCl 50 mM): >25 µM; MIC (P. aeruginosa 27853; NaCl 100 mM): >25 µM; MIC (P. aeruginosa 27853; NaCl 150 mM): >25 µM; survival rate of HaCaT cells (HaCaT cells): 51%
3 | ILKKLLKKVKSI-NH2 [Hp1404-T1d] | 12.5 µM | 3.13 µM | 3.13 µM | 3.13 µM | 12.5 µM | 3.13 µM | 3.13 µM | 1.56 µM | 6.25 µM | 1.56 µM | 25 µM | 3.13 µM | 6.25 µM | 6.25 µM | 3.13 µM | 3.13 µM | 1.56 µM | 1.56 µM | 1.56 µM | 12.5 µM | MBIC ([2]; P. aeruginosa 559): 12.5 µM; MBIC ([2]; P. aeruginosa 778): 12.5 µM; MBIC ([2]; P. aeruginosa 1034): 12.5 µM; MBIC ([2]; P. aeruginosa 1162): 6.25 µM; MBIC ([2]; P. aeruginosa 3399): 25 µM; MBIC ([2]; P. aeruginosa 3543): >50 µM; MBIC ([2]; P. aeruginosa 4007): 50 µM; MBIC [2, 22]: 12.5 µM; MIC (P. aeruginosa 27853; CaCl2 1.25 mM): 12.5 µM; MIC (P. aeruginosa 27853; CaCl2 2.5 mM): 25 µM; MIC (P. aeruginosa 27853; CaCl2 5 mM): >25 µM; MIC (P. aeruginosa 27853; MgCl2 0.5 mM): 3.13 µM; MIC (P. aeruginosa 27853; MgCl2 1 mM): 6.25 µM; MIC (P. aeruginosa 27853; MgCl2 2 mM): 12.5 µM; MIC (P. aeruginosa 27853; NaCl 50 mM): 12.5 µM; MIC (P. aeruginosa 27853; NaCl 100 mM): 12.5 µM; MIC (P. aeruginosa 27853; NaCl 150 mM): 25 µM; survival rate of HaCaT cells (HaCaT cells): 33%
